14 compounds from BindingDB's records for doi:10.1021/acs.jmedchem.6b00948 (Fimbrion Therapeutics, 2016) can be followed below.

This test in a line: Inhibition of Escherichia coli UTI89 FimH-mediated biofilm formation after 48 hrs by crystal violet staining-based assay.
With `Cc1cc(-c2ccc3cc[nH]c(=O)c3c2)ccc1O[C@H]1O[C@H](CO)[C@@H](O)[C@H](O)[C@@H]1O`, it took 130 nM to reach half-maximal inhibition (IC50). `Cc1cc(-c2cccc3cnccc23)ccc1O[C@H]1O[C@H](CO)[C@@H](O)[C@H](O)[C@@H]1O` had an IC50 of 140 nM. Next, `Cc1cc(-c2ccc3c(c2)C(=O)NCC3)ccc1O[C@H]1O[C@H](CO)[C@@H](O)[C@H](O)[C@@H]1O`: 250 nM; `CNC(=O)c1cccc(-c2ccc([C@@H](O)[C@H]3O[C@H](CO)[C@@H](O)[C@H](O)[C@@H]3O)cc2)c1`: 900 nM; `Cc1cc(-c2ccc3ccnc(N)c3c2)ccc1O[C@H]1O[C@H](CO)[C@@H](O)[C@H](O)[C@@H]1O`: 340 nM. With `CNC(=O)c1cccc(-c2ccc([C@H](O)[C@H]3O[C@H](CO)[C@@H](O)[C@H](O)[C@@H]3O)c(C)c2)c1`, the IC50 turned out to be 11000 nM. Next, `CNC(=O)c1cccc(-c2ccc([C@@H](O)[C@H]3O[C@H](CO)[C@@H](O)[C@H](O)[C@@H]3O)c(C)c2)c1`: 80 nM; `CNC(=O)c1cccc(-c2ccc(O[C@H]3O[C@H](CO)[C@@H](O)[C@H](O)[C@@H]3O)cc2)c1`: 1350 nM; `Cc1cc(-c2ccc3c(c2)C(=O)NCC3)ccc1[C@@H](O)[C@H]1O[C@H](CO)[C@@H](O)[C@H](O)[C@@H]1O`: 40 nM.

The compound `Cc1cc(-c2ccc3cc[nH]c(=O)c3c2)ccc1[C@@H](O)[C@H]1O[C@H](CO)[C@@H](O)[C@H](O)[C@@H]1O` came in with an IC50 of 30 nM.

With `Cc1cc(-c2ccc3ccnc(N)c3c2)ccc1[C@@H](O)[C@H]1O[C@H](CO)[C@@H](O)[C@H](O)[C@@H]1O`, the IC50 was found to be 40 nM. The IC50 values of the last two compounds are within 1.5-fold of each other. Consider `Cc1cc(-c2cccc3cnccc23)ccc1[C@@H](O)[C@H]1O[C@H](CO)[C@@H](O)[C@H](O)[C@@H]1O`, for which 600 nM corresponded to half-maximal inhibition (IC50). Compared with the last compound, the IC50 is about 15-fold higher. The figure for `CNC(=O)c1cccc(-c2ccc([C@H](O)[C@H]3O[C@H](CO)[C@@H](O)[C@H](O)[C@@H]3O)cc2)c1` is 38000 nM; for `CNC(=O)c1cccc(-c2ccc(O[C@H]3O[C@H](CO)[C@@H](O)[C@H](O)[C@@H]3O)c(C)c2)c1` it is 150 nM.
